Assays:
estrogen receptor = experiment: Scatchard analysis of ligand binding affinity on receptor-programmed reticulocyte lysate; conditions: Scatchard analysis at receptor dilutions giving signal:noise ~10
Experimental: The volume of receptor-programmed reticulocyte lysate to be added to the binding assay can be determined independently from two measurements made on each batch of receptor prepared. First, Kis are determined for standard compounds using a series of dilutions of the receptor preparation. Scatchard analysis of ligand binding affinity is performed at the receptor dilutions that produced reported Kis for these compounds and an acceptable signal:noise ratio (˜10).

[1] = humans, single agent therapy, circulating in the blood; Blackledge et al, Urology 1996; cited from earlier work

SMILES	Kd (estrogen receptor)	basal level of total testosterone [1]
CC12CCC3c4ccc(O)cc4CCC3C1CC([125I])C2O (stereo not drawn) [[^125I]-estradiol, [^125I]-16α-iodo-3,17β-estradiol]	0.1 to 1 nM	–
CC(O)(CS(=O)(=O)c1ccc(F)cc1)C(=O)Nc1ccc(C#N)c(C(F)(F)F)c1 (stereo not drawn) [bicalutamide, 4′-cyano-α′,α′,α′-trifluoro-3-(4-fluorophenylsulphonyl)-2-hydroxy-2-methylpropiono-m-toluidide]	–	approximate doubling

From patent US20040204390A1, “Pharmaceutical combination comprising an anti-androgen and an oestrogen receptor beta agonist” (priority 2001, published 2004)
